The numbers were not newly measured in patent publication US9884842B2, “Combretastatin analogs” (The Board of Trustees of the University of Arkansas, priority 2013, dated 2018), which cites them from elsewhere.

Settings in all cases: background; cited from earlier work
For data set [1], the system named is tubulin.
In data set [2] the test system is tubulin. The source holds these as a separate data set.
In data set [3] the test system is multidrug resistant (MDR) cancer cell lines.

With `COc1ccc(/C=C\c2cc(OC)c(OC)c(OC)c2)cc1O` [combretastatin A-4], the “inhibition of tubulin polymerization” value with tubulin [1] is reported as “inhibit tubulin polymerization”. The “inhibition of binding of radiolabeled colchicines to tubulin” value in the data set with tubulin [2] is listed as “competitively inhibit the binding of radiolabeled colchicines to tubulin”. For the same molecule, the “activity against multidrug resistant (MDR) cancer cell lines” value in data set [3] is “active”.
